Test results from patent publication US20230286983A1 (4E Therapeutics, Inc., priority 2020, published 2023).
Values joined by “and” are separate entries in the source; they are usually repeats but may differ in a detail not shown here. Equal values may be shown once. Read-outs that look alike come from different tables or passages of the source.

Experiments:
[1] = tested on: eIF4E phosphorylation at Serine 209 in the human embryonic kidney (HEK) 293 cell line; assay: eIF4E phosphorylation in HEK 293 cells (fluorescent plate reader); assay type: cell-based; conditions: Homo sapiens, HEK293, 2 h, eIF4E phosphorylation at Serine 209, 2 hours exposure
Procedure, shortened: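 HEK-293 cells were treated with compound for 2 h, then methanol-fixed and Triton-permeabilized. Ser209 phospho-eIF4E was stained with primary antibody (1:2000, overnight) and an Alexa Fluor 488 secondary. Fluorescence was normalized to DAPI, and IC50 was fitted from concentration-response data.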

[2] = Liver microsome stability, mouse; assay type: in vitro ADME; conditions: mouse, liver microsomes, mouse liver microsomes, Table 11b; read-out: T1/2
[3] = target: MNK2 (Homo sapiens, UniProt Q9HBH9); assay: MNK2 substrate phosphorylation assay; assay type: biochemical; conditions: recombinant human kinase
Sequence of MNK2 (Q9HBH9 whole entry): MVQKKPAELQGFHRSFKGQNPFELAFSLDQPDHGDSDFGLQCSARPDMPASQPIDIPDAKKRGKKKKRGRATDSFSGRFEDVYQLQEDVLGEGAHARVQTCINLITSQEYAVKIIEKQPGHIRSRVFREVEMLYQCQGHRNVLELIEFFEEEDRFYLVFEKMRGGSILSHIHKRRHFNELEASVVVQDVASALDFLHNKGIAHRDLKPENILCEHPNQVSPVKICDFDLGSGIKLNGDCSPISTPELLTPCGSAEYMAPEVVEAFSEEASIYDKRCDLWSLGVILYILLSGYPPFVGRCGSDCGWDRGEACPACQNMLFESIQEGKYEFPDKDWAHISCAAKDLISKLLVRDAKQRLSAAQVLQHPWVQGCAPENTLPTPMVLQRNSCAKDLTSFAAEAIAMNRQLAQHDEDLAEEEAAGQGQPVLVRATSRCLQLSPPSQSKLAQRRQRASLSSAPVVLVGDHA

[4] = Pharmacokinetic study, 4ET-01-021 with IV and PO dosing; assay type: in vivo, CD-1 male mice; conditions: for concentration at 24 h: read-out: Clast; for bioavailability: read-out: F (oral bioavailability)
Description: 4ET-01-021 was dissolved in 10% dimethylacetamide (DMA)/90% propylene glycol (PG) for oral dosing and 10% DMI (dimethyl isosorbide)/15% EtOH (ethanol)/35% PG (propylene glycol)/40% NS (normal saline) for IV dosing. CD-1 male mice were dosed with 4ET-01-021 at 1.0 mg/kg (IV), 3.0 mg/kg (PO), or 10.0 mg/kg (PO). Plasma was collected at indicated timepoints and plasma concentration of 4ET-01-021 was measured using liquid chromatography-mass spectrometry/mass spectrometry (LC-MS/MS).
In mice, following IV administration with 1.0 mg/kg, plasma concentrations declined in a multiphasic manner with an initial concentration (Co) of 0.860 μg/mL and a last measurable concentration (Clast) of 19.3 ng/mL at 24 h post dose. […] Results are presented in Table 13; mean values averaged for 3 animals are shown.
Results are presented in Table 14; mean values averaged for 3 animals are shown.
Results are presented in Table 15; mean values averaged for 3 animals are shown.

[5] = target: MNK1 (Homo sapiens, UniProt Q9BUB5); assay: MNK1 substrate phosphorylation assay; assay type: biochemical; conditions: recombinant human kinase
Sequence of MNK1 (Q9BUB5 whole entry): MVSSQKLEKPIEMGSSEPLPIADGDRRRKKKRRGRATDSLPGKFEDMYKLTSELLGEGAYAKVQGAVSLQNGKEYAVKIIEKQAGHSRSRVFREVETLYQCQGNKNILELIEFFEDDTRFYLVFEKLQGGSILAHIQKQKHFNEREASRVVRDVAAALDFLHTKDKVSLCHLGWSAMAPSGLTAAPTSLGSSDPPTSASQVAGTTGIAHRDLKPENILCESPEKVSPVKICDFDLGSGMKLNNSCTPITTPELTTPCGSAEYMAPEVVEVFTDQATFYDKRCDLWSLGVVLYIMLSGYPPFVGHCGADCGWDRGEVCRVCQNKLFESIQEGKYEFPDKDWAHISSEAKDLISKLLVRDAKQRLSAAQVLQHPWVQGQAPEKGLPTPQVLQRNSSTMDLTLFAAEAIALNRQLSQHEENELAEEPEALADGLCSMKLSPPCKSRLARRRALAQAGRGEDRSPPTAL

[6] = tested on: P-gp (human MDR1, ABCB1); assay: MDCK-MDR1 permeability (blood brain barrier permeability); assay type: in vitro ADME, Canine; conditions: dog; for efflux ratio at 5 μM: MDCK-MDR1, 5 μM, read-out: Efflux ratio (ratio B-A/A-B); for Papp A→B at 5 μM: MDCK-MDR1, Apical to basolateral transport; for Papp A→B at 5 μM / Papp B→A at 5 μM: average of two experiments; for Papp B→A at 5 μM: MDCK-MDR1, Basolateral to apical transport
[7] = tested on: eIF4E phosphorylation; assay: In vivo eIF4E phosphorylation in different tissues (Western blot), 4ET-01-021; set-up: species or system mice; conditions: PO 10 mg/kg
Source text: However, 4ET-01-021 minimally-inhibited phosphorylation of eIF4E in the brain, as determined by Western blot analysis of brain tissue from the cortex.

[8] = Brain to plasma ratio, 4ET-01-021 at 3.0 mg/kg PO; assay type: in vivo, male CD-1 mouse; conditions: for concentration at 2 h: oral, 3 mg/kg
[9] = tested on: eIF4E phosphorylation at Serine 209 in the human osteosarcoma (U2OS) cell line; assay: eIF4E phosphorylation in U2OS cells (fluorescent plate reader); assay type: cell-based; conditions: Homo sapiens, U2OS; eIF4E phosphorylation at Serine 209, 2 hours exposure
Description: The ability of MNK inhibitors described herein to inhibit eIF4E phosphorylation at Serine 209 in the human osteosarcoma (U2OS) cell line was tested by exposing the cells to compound for 2 hours and then measuring eIF4E phosphorylation with a phosphorylation-specific antibody in a fluorescent plate reader.

[10] = IV 1.0 mg/kg, mean of 3 animals
[11] = male, CD-1, mouse, plasma, po, orally dosed at 3 mg/kg, mean of 3 animals
[12] = male, CD-1, mouse, plasma, po, orally dosed at 10 mg/kg, mean of 3 animals
[13] = male, CD-1, mouse, plasma, IV 1.0 mg/kg, mean of 3 animals
[14] = orally dosed at 3 mg/kg, mean of 3 animals
[15] = orally dosed at 10 mg/kg, mean of 3 animals

Work on `CCC1=CC2(CCC1)NC(=O)c1c(C)cc(Nc3cc(N)ncn3)c(=O)n12` (stereo not shown) [Compound 4ET-01-021, 6′-((6-Aminopyrimidin-4-yl)amino)-3-ethyl-8′-methyl-2′H-spiro[cyclohexane-1,3′-imidazo[1,5-a]pyridin]-2-ene-1′,5′-dione] yielded an IC50 [1] of 6 nM, a half-life [2] of 1.55 h and an IC50 [3] of 5.8 nM. It also gave an AUConf/D [4, 10] of 2420 kg·h/kL, a Tlast [4, 10] of 24.0 h and a V55 [4, 10] of 3.49 L/kg. For the same molecule, the AUC(0-inf) ([4]; male, CD-1, mouse, plasma, iv, 1 mg/kg, IV 1.0 mg/kg, mean of 3 animals, read-out: AUCinf) was 2420 ng·h/mL, the AUC(0-inf) ([4]; male, CD-1, mouse, plasma, iv, 1 mg/kg, IV 1.0 mg/kg, read-out: total systemic exposure (AUCinf)) was 2420 ng·h/mL and the AUC(0-inf) ([4]; male, CD-1, mouse, plasma, po, 3 mg/kg, oral 3 mg/kg, read-out: total systemic exposure (AUCinf)) was 4500 ng·h/mL. It also gave an AUC(0-inf) ([4]; male, CD-1, mouse, plasma, po, 3 mg/kg, orally dosed at 3 mg/kg, mean of 3 animals, read-out: AUCinf) of 4500 ng·h/mL, an AUC(0-inf) ([4]; male, CD-1, mouse, plasma, po, 10 mg/kg, oral 10 mg/kg, read-out: total systemic exposure (AUCinf)) of 12000 ng·h/mL and an AUC(0-inf) ([4]; male, CD-1, mouse, plasma, po, 10 mg/kg, orally dosed at 10 mg/kg, mean of 3 animals, read-out: AUCinf) of 12000 ng·h/mL. It also gave an AUC(0-t) [4, 11] of 4130 ng·h/mL, a Cmax [4, 11] of 643 ng/mL and an MRT inf [4, 11] of 8.41 h. The Tmax [4, 11] was 0.5 h, the half-life [4, 11] was 7.11 h and the concentration at 24 h [4, 11] was 36.3 ng/mL. For the same molecule, the bioavailability [4, 11] was 61.9%, the AUC(0-t) [4, 12] was 11000 ng·h/mL and the Cmax [4, 12] was 1900 ng/mL. It also gave an MRT inf [4, 12] of 8.51 h, a Tmax [4, 12] of 0.25 h and a half-life [4, 12] of 7.44 h. For the same molecule, the concentration at 24 h [4, 12] was 99.5 ng/mL, the bioavailability [4, 12] was 49.6% and the AUC(0-t) [4, 13] was 2190 ng·h/mL. The MRT inf [4, 13] was 8.32 h, the half-life [4, 13] was 8.42 h and the clearance ([4]; male, CD-1, mouse, plasma, IV 1.0 mg/kg, mean of 3 animals, read-out: CLp) was 6.97 mL/min/kg. The concentration at 24 h [4, 13] was 19.3 ng/mL, the Vd ([4]; male, CD-1, mouse, plasma, IV 1.0 mg/kg, mean of 3 animals, read-out: Vz) was 5.1 L/kg and the C0 ([4]; male, CD-1, mouse, plasma, IV 1.0 mg/kg, read-out: initial concentration (Co)) was 860 ng/mL. For the same molecule, the AUCinf/D [4, 14] was 1500 kg·h/kL, the Tlast [4, 14] was 24 h and the AUCinf/D [4, 15] was 1202 kg·h/kL. For the same molecule, the Tlast [4, 15] was 24 h, the IC50 [5] was 38.7 nM and the efflux ratio at 5 μM [6] was 0.9. For the same molecule, the Papp A→B at 5 μM [6] was 55.3 ×10⁻⁶ cm/s, the Papp B→A at 5 μM [6] was 52 ×10⁻⁶ cm/s and the “eIF4E phosphorylation in the brain (cortex)” value [7] was “minimally-inhibited”. The “eIF4E phosphorylation in DRGs, sciatic nerve, and spleen” value ([7]; 2 hours or 4 hours post dose) was “significant inhibition of eIF4E phosphorylation”, the “Tissue Homogenate Concentration” value ([8]; 2 hr, Brain, individual) was 17.6 ng/mL and 12.2 ng/mL and the “Plasma Concentration” value ([8]; 2 hr, Plasma, individual) was 462 ng/mL and 383 ng/mL. It also gave a Kp at 2 h ([8]; male, CD-1, mouse, 2 h post dosing, Brain, read-out: Mean tissue/plasma concentration ratio (B:P ratio)) of 0.142, a concentration at 2 h ([8]; male, CD-1, mouse, brain homogenate, 2 h, Brain, read-out: Mean (brain homogenate)) of 14.8 ng/mL and a concentration at 2 h ([8]; male, CD-1, mouse, brain homogenate, 2 hr, Brain, individual, read-out: Tissue Homogenate Concentration) of 14.5 ng/mL. For the same molecule, the concentration at 2 h ([8]; male, CD-1, mouse, brain, 2 h, Brain, read-out: Mean Tissue) was 59.1 ng/g, the concentration at 2 h ([8]; male, CD-1, mouse, plasma, 2 h, Plasma, read-out: Mean (plasma)) was 416 ng/mL and the concentration at 2 h ([8]; male, CD-1, mouse, plasma, 2 hr, Plasma, individual, read-out: Plasma Concentration) was 404 ng/mL.
In the case of `Cc1cc(Nc2cc(NC(=O)C3CC3)ncn2)c(=O)n2c1C(=O)NC21CCOCC1` [Compound 4ET-03-009, N-(6-((8-Methyl-1,5-dioxo-1,2′,3′,5,5′,6′-hexahydro-2H-spiro[imidazo[1,5-a]pyridine-3,4′-pyran]-6-yl)amino)pyrimidin-4-yl)cyclopropanecarboxamide], the IC50 [1] is reported as 1.7 nM, the IC50 [9] is reported as 1.7 nM and the IC50 [3] is reported as 2.6 nM. For the same molecule, the IC50 [5] was 31.3 nM, the efflux ratio at 5 μM [6] was 4.6 and the Papp A→B at 5 μM [6] was 5.4 ×10⁻⁶ cm/s. For the same molecule, the Papp B→A at 5 μM [6] was 25 ×10⁻⁶ cm/s.
